The results in this text go back to patent US20240124409A1, “GUAIANOLIDE SESQUITERPENE LACTONE DERIVATIVES AND PHARMACEUTICAL USE THEREOF” (NANJING UNIVERSITY OF CHINESE MEDICINE, priority 2021, published 2024).

Converted amounts (≈) assume the structure as drawn. Where only a bound is given, the exact number is not on record here.

A short description of series [1]: Solubility test in water. Conditions: thermodynamic from solid; deionized water, 37° C. It is filed as physicochemical. As to the method: Saturated solutions were formulated, filtered and analyzed by HPLC with a sample volume of 1 μL, 3 μL, 5 μL, 10 μL, 15 µL and 20 μL sequentially, and the standard curves of the corresponding compounds were drawn.
[…] of the above compounds were formulated, dissolved by ultrasound for 4 h, and placed on a water bath at 37° C. to stand for 1 h. The resulting unsaturated solutions were centrifuged. 30 μL of supernatants were removed, diluted by adding 200 μL of deionized water, and then filtered.

Series [2] has as its target T1, NLRP3 inflammasome (Mus musculus, UniProt Q8R4B8).
T1 construct: endogenous in cells; host or cells: primary bone marrow-derived macrophages (BMDMs) from female C57BL/6 mice, differentiated with rmM-CSF
Briefly: Inhibition of LPS and ATP induced NLRP3 inflammasome activation in BMDMs (IL-1β level). It is filed as cell-based, C57BL/6 mice. Conditions: read-out: IC50, inhibitory effect on activation of NLRP3 inflammasome. An excerpt:
NLRP3 is an important pattern recognition receptor, that can form the NLRP3 inflammasome through the adaptor ASC and pro-caspase-1. After activation, the NLRP3 inflammasome can mediate the activation of caspase-1, thus promoting the maturation and secretion of IL-1β. In order to determine whether the prepared guaianolide sesquiterpene lactone Compounds 1-8 can inhibit the activation of the NLRP3 inflammasome, we used LPS and ATP to induce the activation of the NLRP3 inflammasome, and observed the effects of Compounds 1-8 on the IL-1β level caused by NLRP3 inflammasome activation.
C57BL/6 mice were sacrificed by cervical dislocation, and then soaked in 75% alcohol for 5-10 min. Subsequently, two hind legs of the mice were cut off with scissors. Next, the meat was removed, and the leg bones were left, which were then washed with PBS for three times. After severing the bone at both ends, a sterile syringe filled with cold serum-free RPMI 1640 medium was used to flush the bone marrow into a 15 mL centrifuge tube. Subsequently, the bone marrow was centrifuged at 1500 rpm for 5 min, and the supernatant was discarded. The residue was resuspended with 1 mL of erythrocyte lysate, blown repeatedly, and then stood for 7 min to lyse erythrocytes. After centrifugation at 1500 rpm for 5 min, the supernatant was discarded. The residue was resuspended with the RPMI 1640 medium containing 100 ng/ml of rmM-CSF, and then transferred to a 6-well culture plate for culture.
The BMDMs were seeded on 6-well cell culture plates and then treated with 100 ng/ml ultrapure LPS for 3 h. […] Subsequently, the cells were stimulated with 5 mM ATP for 45 min. The supernatants were collected into 1.5 mL EP tubes for subsequent detection of IL-1β level.

The nature of series [3]: Stability in artificial gastric juice environment (HPLC). Conditions: 37° C.
Protocol: The samples were dissolved in 500 μL of chromatographic methanol, into which were added 1500 μL of artificial gastric juice, mixed well and then dissolved completely by ultrasound. 50 μL of the above solutions were aspirated precisely, diluted by adding 200 μL of chromatographic methanol, filtered and analyzed by HPLC, wherein the HPLC analysis conditions were mobile phase: 65% methanol -35% water, flow rate: 0.8 mL/min, and column temperature: 25° C., and the initial peak areas were recorded. The above solutions were placed on a constant temperature water bath at 37° C., sampled at 8 h, 16 h and 24 h respectively, and analyzed by HPLC. By calculating the peak areas respectively, the stability data of the corresponding samples in artificial gastric juice environment at 8 h, 16 h and 24 h can be obtained.
Series [4] relates to mouse acute liver injury model. In words: Mouse acute liver injury model (CCl4). The class given is in vivo, C57BL/6 mice. As to the method:
The mice were randomly divided into 8 groups, one of which was randomly selected as the normal group, and the other 7 groups were the model group, the parent drug 1 (0.4 and 4 μmol/kg), the hydrochloride 22 (4 μmol/kg), and the fumarate 23 (0.4 and 4 μmol/kg) groups, respectively, with 6 mice in each group. In addition to the normal group injected with 10 mL olive oil/kg, the other mice were injected intraperitoneally with 0.5 mL CCl4+9.5 mL olive oil/kg weight, i.e., the ratio of CCl4 to olive oil was 1:19. […] The mice in the normal group and model group were administered intragastrically the same volume of the solvent 0.5% CMC-Na.
1 h after the last administration, blood was collected from the venous plexus of fundus oculi, stood at room temperature for 2 h, and centrifuged at 3000 rpm for 20 min. The serum was aspirated, aliquoted, and frozen at −70° C. for subsequent use. After blood collection, the mice were sacrificed by cervical dislocation, and the abdominal cavity was opened. The livers were taken out, and rinsed twice with pre-cooled PBS. The liver left lobe tissues of the mice were cut, and fixed with 4% paraformaldehyde for 24-48 h. The remaining tissues were frozen at −70° C. for subsequent use.
μL of each sample was taken for experiments. The levels of AST and ALT in the serum of mice were detected according to the operation manual. The absorbance value was detected at the wavelength of 510 nm by a microplate reader, and the sample concentration (U/L) was calculated according to the standard curve.
The extraction method of total RNA from tissues, cDNA synthesis and the PCR amplification method are the same as those in Example 4.

T1 sequence (Q8R4B8 whole entry): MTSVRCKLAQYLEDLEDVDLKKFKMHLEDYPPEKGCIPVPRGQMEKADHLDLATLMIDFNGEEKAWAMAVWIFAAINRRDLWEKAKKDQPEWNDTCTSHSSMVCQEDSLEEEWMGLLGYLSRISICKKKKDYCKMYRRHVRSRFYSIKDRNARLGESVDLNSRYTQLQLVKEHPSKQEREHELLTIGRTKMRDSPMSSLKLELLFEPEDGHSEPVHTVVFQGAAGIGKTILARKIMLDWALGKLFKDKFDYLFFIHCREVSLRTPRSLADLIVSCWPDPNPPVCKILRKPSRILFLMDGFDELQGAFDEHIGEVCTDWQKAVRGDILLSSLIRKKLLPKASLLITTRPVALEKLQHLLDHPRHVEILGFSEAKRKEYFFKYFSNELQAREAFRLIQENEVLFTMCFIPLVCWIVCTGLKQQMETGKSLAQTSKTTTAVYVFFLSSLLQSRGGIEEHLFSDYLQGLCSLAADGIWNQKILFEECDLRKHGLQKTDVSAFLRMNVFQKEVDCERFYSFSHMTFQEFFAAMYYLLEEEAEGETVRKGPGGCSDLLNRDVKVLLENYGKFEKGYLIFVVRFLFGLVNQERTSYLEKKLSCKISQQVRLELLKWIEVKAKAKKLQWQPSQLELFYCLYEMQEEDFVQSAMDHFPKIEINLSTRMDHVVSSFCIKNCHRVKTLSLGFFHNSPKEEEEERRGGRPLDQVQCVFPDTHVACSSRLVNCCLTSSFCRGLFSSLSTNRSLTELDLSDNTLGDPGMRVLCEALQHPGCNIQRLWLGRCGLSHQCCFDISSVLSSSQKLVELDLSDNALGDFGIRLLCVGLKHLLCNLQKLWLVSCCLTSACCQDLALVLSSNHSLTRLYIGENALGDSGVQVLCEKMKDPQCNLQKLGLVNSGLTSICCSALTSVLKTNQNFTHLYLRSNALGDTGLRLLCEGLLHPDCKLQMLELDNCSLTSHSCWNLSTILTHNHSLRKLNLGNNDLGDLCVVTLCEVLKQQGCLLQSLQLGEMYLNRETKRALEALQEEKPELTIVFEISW

`C=C1C(=O)O[C@@H]2[C@H]3C(C)=CC[C@]34C[C@]4(C)CC[C@@H]12` [Compound 2]: the solubility – broadly, the concentration that dissolves in the medium under given conditions – in series [1] was 0.0008 mg/mL (≈ 0.00327 mM). The half-inhibitory concentration (IC50) (in general, the concentration at which inhibition is half-maximal) in series [2] is under 0.04 µM. Moreover, in series [3], the “Non-degradation percentage at 8 h” value is listed as 90.92%, the “Non-degradation percentage at 16 h” value is on record as 86.62% and the “Non-degradation percentage at 24 h” value was found to be 78.26%.

Regarding `C=C1C(=O)O[C@H]2[C@H]1CC[C@@]1(C)C[C@]13C[C@@H](O)[C@@](C)(OC)[C@H]23` [Compound 3], in series [1], the concentration in solution (solubility) came to 0.0355 mg/mL (≈ 0.121 mM). In series [2], the concentration for half-maximal inhibition (IC50) was under 0.04 µM. Moreover, in series [3], the “Non-degradation percentage at 8 h” value is reported as 99.98%, the “Non-degradation percentage at 16 h” value is recorded as 99.87% and the “Non-degradation percentage at 24 h” value turned out to be 97.77%.

The compound `C=C1C(=O)O[C@H]2[C@H]1CC[C@@]1(C)C[C@]13C[C@@H](O)[C@@](C)(O)[C@H]23` [Compound 4] gave a solubility in series [1] of 0.101 mg/mL (≈ 0.362 mM). Moreover, in series [2], the IC50 was under 0.04 µM. Further, in series [3], the “Non-degradation percentage at 8 h” value was determined as 98.15%, the “Non-degradation percentage at 16 h” value is listed as 96.84% and the “Non-degradation percentage at 24 h” value amounted to 96.21%.

`C=C1C(=O)O[C@@H]2[C@@H]3[C@]4(CC[C@@]3(C)F)C[C@]4(C)CC[C@@H]12` [Compound 5] displayed a solubility in series [1] of 0.0259 mg/mL (≈ 0.0979 mM). Also, in series [2], the IC50 was under 0.04 µM. Further, in series [3], the “Non-degradation percentage at 8 h” value amounted to 99.91%, the “Non-degradation percentage at 16 h” value came out at 99.85% and the “Non-degradation percentage at 24 h” value stood at 99.84%.

`C=C1C(=O)O[C@@H]2C3=C(C)CC[C@]34C[C@]4(C)CC[C@@H]12` [Compound 6] had a solubility in series [1] of 0.00258 mg/mL (≈ 0.0106 mM). In addition, the IC50 in series [2] is under 0.04 µM. Further, in series [3], the “Non-degradation percentage at 8 h” value was 99.89%, the “Non-degradation percentage at 16 h” value was 96.80% and the “Non-degradation percentage at 24 h” value came to 95.72%.

`C=C1C(=O)O[C@@H]2[C@@H]3[C@]4(CC[C@@]3(C)OC(=O)CC)C[C@]4(C)CC[C@@H]12` [Compound 7]: the concentration in solution in series [1] (solubility) came to 0.0177 mg/mL (≈ 0.0555 mM). For the same compound, in series [2], the IC50 was under 0.04 µM. In series [3], the “Non-degradation percentage at 8 h” value came to 99.31%, the “Non-degradation percentage at 16 h” value was found to be 97.85% and the “Non-degradation percentage at 24 h” value was 97.65%.

In series [1], `C=C1C(=O)O[C@@H]2[C@@H]3[C@]4(CC[C@@]3(C)OC)C[C@]4(C)CC[C@@H]12` [Compound 8] registered a solubility of 0.00852 mg/mL (≈ 0.0308 mM). In addition, in series [2], the IC50 is under 0.04 µM. Also, in series [3], the “Non-degradation percentage at 8 h” value was determined as 98.36%, the “Non-degradation percentage at 16 h” value is on record as 95.58% and the “Non-degradation percentage at 24 h” value was found to be 94.08%.

`CC1=CC[C@@]23C[C@]2(C)CC[C@@H]2[C@H](OC(=O)[C@H]2CN(C)C)[C@@H]13` [Compound 24]: the solubility in series [1] worked out at 96.6 mg/mL (≈ 334 mM). The 50% inhibitory concentration (IC50) in series [2] lay within 0.04 to 0.08 µM.

In turn, `CO[C@]1(C)[C@H](O)C[C@@]23C[C@]2(C)CC[C@@H]2[C@H](OC(=O)[C@H]2CN(C)C)[C@@H]13` [Compound 25] had a solubility in series [1] of 221 mg/mL (≈ 654 mM). In addition, the IC50 in series [2] was in the range of 0.04 to 0.08 µM.

`CN(C)C[C@@H]1C(=O)O[C@H]2[C@H]1CC[C@@]1(C)C[C@]13C[C@@H](O)[C@@](C)(O)[C@H]23` [Compound 26]: in series [1], the solubility was determined as 248 mg/mL (≈ 768 mM). Besides, the half-maximal inhibitory concentration (IC50) in series [2] is 0.04 to 0.08 µM.

Regarding `CN(C)C[C@@H]1C(=O)O[C@H]2[C@H]1CC[C@@]1(C)C[C@]13CC[C@@](C)(F)[C@H]23` [Compound 27], the concentration in solution in series [1] (solubility) came to 208 mg/mL (≈ 674 mM). Also, the half-inhibitory concentration (IC50) in series [2] was in the range of 0.04 to 0.08 µM.

Compound `CC1=CC[C@@]23C[C@]2(C)CC[C@H]2[C@H](CN(C)C)C(=O)O[C@@H]2C13` (some centres unmarked) [Compound 28] registered a solubility in series [1] of 120 mg/mL (≈ 416 mM). Besides, in series [2], the IC50 fell in the range of 0.08 to 0.1 µM.

In series [1], `CCC(=O)O[C@]1(C)CC[C@@]23C[C@]2(C)CC[C@@H]2[C@H](OC(=O)[C@H]2CN(C)C)[C@H]31` [Compound 29] showed a solubility of 195 mg/mL (≈ 535 mM). Also, the concentration for half-maximal inhibition (IC50) in series [2] is 0.04 to 0.08 µM.

As for `COc1cc(C2Oc3cc([C@H]4Oc5cc(O)cc(O)c5C(=O)[C@@H]4O)ccc3OC2CO)ccc1O` (some centres unmarked) [Silybin, reference compound], in series [4] (liver, 400 μmol/kg), the “Acta2 mRNA expression” value is reported as 2.91, the “Col1a1 mRNA expression” value was 1.84 and the “Tgfb1 mRNA expression” value came out at 1.11. In series [4] (serum, 4 μmol/kg), this compound yielded an ALT of 121.58 U/L. This compound registered an AST in series [4] (serum, 400 μmol/kg) of 301.45 U/L.

In the case of `C=C1CC[C@H]2C(=C)CC[C@H]3C(=C)C(=O)O[C@@H]3[C@@H]12` [dehydrocostus lactone, reference compound], the concentration in solution in series [1] (solubility) came to 44.8 mg/mL (≈ 195 mM). Moreover, in series [3], the “Non-degradation percentage at 8 h” value is listed as 68.91%, the “Non-degradation percentage at 16 h” value turned out to be 65.42% and the “Non-degradation percentage at 24 h” value is listed as 57.86%.
